Measured values taken from patent publication US7897162B2, “Arthropod repellent pharmacophore models, compounds identified as fitting the pharmacophore models, and methods of making and using thereof” (The United States of America as represented by the …, priority 2003, dated 2011).

Assays:
arthropods [1] = assay: Arthropod repellent test of short-listed compounds found by pharmacophore database search; type: in vivo; details: for Experimental PT: Table 3, compounds identified by database search; for repellent activity against arthropods (in words): short list of 138 compounds from in-house CIS screened
From the text: As provided in Example 4, the pharmacophore model of the present invention was used to search three-dimensional multiconformer databases, including an in-house Chemical Information System (Chemical Information System, Division of Experimental Therapeutics, Walter Reed Army Institute of Research, Silver Spring, Md.), National Cancer Institute, IBS and Maybridge databases, to screen for potential new repellent agents. The Chemical Information System database has over 240,000 compounds and was transformed into a multiconformer database in CATALYST® using the catDB® utility program as implemented in the software. The catDB® format allows a molecule to be represented by a limited set of conformations thereby permitting conformational flexibility to be included during the search of the database.
Specifically, the three-dimensional pharmacophore of the present invention was used as a template for search various three-dimensional multi-conformer databases. Three-dimensional multi-conformer databases of molecules comprise all possible conformations of the three-dimensional structure of each molecule in the database within an energy range of 0 to 25 kcal/mol. The three-dimensional structures in the databases were mapped to or compared with the three-dimensional pharmacophore of the present invention to identify compounds having the same or similar three-dimensional conformations.
The compounds were short listed on the basis of their ADME (Absorption, Distribution, Metabolism, and Excretion) properties and were evaluated by rapid in silico screening using Cerus^2ADME methodology. See Cerius^2ADME. Accelrys Inc. (2003) San Diego, Calif. The short listed compounds were then tested for arthropod repellent property using methods known in the art. See e.g. Debboun, et al. (1999) J. Am. Mosq. Cont. Assoc. 15(3):342-347; and Gupta, R K and Rutledge, L C (1991) J. Am. Mosq. Cont. Assoc. 7:490-493, which are herein incorporated by reference.
Three-dimensional multiconformer databases, including an in-house Chemical Information System (Chemical Information System, Division of Experimental Therapeutics, Walter Reed Army Institute of Research, Silver Spring, Md.), National Cancer Institute, IBS and Maybridge databases, were screened for potential new repellent agents using the pharmacophore model of the present invention. The Chemical Information System database of the Division of Experimental Therapeutics, WRAIR is a database of more than 245,000 proprietary compounds. By using the catDB utility program of the CATALYST®, the database was transformed into a multi-conformer based 3D database. The database searching protocol in the CATALYST® involves a rapid 3D screening process followed by a rigorous atom-by-atom mapping in which a fairly comprehensive set of features including the chemical features of the pharmacophore are considered. In addition to the traditional pharmacophore based searching, 3D shape similarity and partial match searching may also be performed. See Kurogi, Y and Gunner, O F (2001) Current Medicinal Chemistry 8:1035-1055, which is herein incorporated by reference.

arthropod = details: Table 1, training set of 11 repellents; protection (repelling) time; cited from earlier work
mosquitoes = details: cited from earlier work
white rats = details: cited from earlier work
arthropods [2] = details: under warm, humid conditions; cited from earlier work

| SMILES | Experimental PT (arthropods [1]) [h] | Experimental PT (arthropod) [h] | other results |
| --- | --- | --- | --- |
| C=CCSc1nccnc1C [2-allylsulfanyl-3-methyl-pyrazine] | 1.6 | – | repellent activity against arthropods (in words) (arthropods [1]): found to exhibit repellent activity against arthropods |
| CCOc1ccccc1C(=O)N(CC)CC | – | 0.5 | – |
| CCCCON1CN(C)N(OCCCC)C1=O | – | 0.6 | – |
| CCCCCCCCC(O)C1CCC(CCCCC(=O)O)O1 (centres unmarked) [5-[5-(1-hydroxy-nonyl)-tetrahydro-furan-2-yl]-pentanoic acid] | – | – | landing and feeding deterrence (mosquitoes): acts as a landing and feeding deterrent for mosquitoes |
| CCN(CC)C(=O)Cc1cccc(Br)c1 [N,N-diethyl-2-(3-bromo-phenyl)-acetamide] | 0.63 | – | – |
| CCN(CC)C(=O)c1cccc(C(F)(F)F)c1 [N,N-diethyl-3-trifluoromethyl-benzamide] | 0.5 | – | – |
| COc1ccc(OC)c(C(=O)CBr)c1 [2-bromo-1-(2,5-dimethoxy-phenyl)-ethanone] | 2.6 | – | repellent activity against arthropods (in words) (arthropods [1]): found to exhibit repellent activity against arthropods |
| CC(C)COC(=O)CC(O)C(=O)OCC(C)C (centres unmarked) | – | 2.5 | – |
| O=C(OCCCO)c1ccccc1 | – | 7.5 | – |
| CCCCC(CC)(CO)CO | – | 1.7 | – |
| CC(C)(Oc1ccccc1Cl)C(N)=O [2-(2-chloro-phenoxy)-2-methyl-propionamide] | 2.6 | – | repellent activity against arthropods (in words) (arthropods [1]): found to exhibit repellent activity against arthropods |
| ClOc1c(Cl)c(Cl)c(Cl)c(Cl)c1Cl | – | 0.2 | – |
| Cc1cc(C)c(C)c(C(=O)C(C)C)c1C [2-methyl-1-(2,3,5,6-tetramethyl-phenyl)-propan-1-one] | 9.3 | – | repellent activity against arthropods (in words) (arthropods [1]): found to exhibit repellent activity against arthropods |
| CCN(CC)C(=O)Cc1cccc(C(F)(F)F)c1 [N,N-diethyl-2-(3-trifluoromethyl-phenyl)-acetamide] | 0.14 | – | – |
| CCCN(CCC)C(=O)c1ccccc1OCC | – | 0.3 | – |
| CCN(CC)C(=O)c1ccccc1Cl | – | 1.2 | – |
| CCCN(CCC)C(=O)COCc1ccccc1 | – | 0.5 | – |
| CCN(CC)C(=O)CC1CCCCC1 [2-cyclohexyl-N,N-diethylacetamide] | 0.24 | – | – |
| CCN(CC)C(=O)c1cccc(C)c1 [DEET, N,N-diethyl-m-toluamide] | – | 1.0 | toxicity on regular skin application (white rats): gonadotoxic and embryotoxic; duration of application (arthropods [2]): 1 to 2 h |
| CCCCN1C(O)=CC(C)c2ccccc21 (centres unmarked) | – | 2.0 | – |
